From ChEMBL document CHEMBL4680309, “Discovery of a potent β-catenin destabilizer for overcoming the resistance of 5-fluorouracil in colorectal cancer” (Bioorg Med Chem, 2021)
Calls of active or inactive are those of the source. The calls are words filed in the database; no cut-off is given here.

Experiments:
HCT-8 [1] = test: Cytotoxicity against human HCT-8 cells assessed as reduction in cell viability at 100 uM incubated for 72 hrs by SRB assay; assay type: functional, cell-based
SW480 = test: Cytotoxicity against human SW480 cells assessed as reduction in cell viability incubated for 72 hrs by SRB assay; conditions: SW480, 72 h
[2] = target: T1, Catenin beta-1 (Homo sapiens) (UniProt P35222); test: Degradation of beta-catenin (unknown origin) transfected in 5-FU resistant human HCT-8 cells assessed as reduction in cyclin D1 mRNA expression at 50 uM incubated for 24 hrs by qRT-PCR analysis; assay type: cell-based
T1 sequence (whole entry): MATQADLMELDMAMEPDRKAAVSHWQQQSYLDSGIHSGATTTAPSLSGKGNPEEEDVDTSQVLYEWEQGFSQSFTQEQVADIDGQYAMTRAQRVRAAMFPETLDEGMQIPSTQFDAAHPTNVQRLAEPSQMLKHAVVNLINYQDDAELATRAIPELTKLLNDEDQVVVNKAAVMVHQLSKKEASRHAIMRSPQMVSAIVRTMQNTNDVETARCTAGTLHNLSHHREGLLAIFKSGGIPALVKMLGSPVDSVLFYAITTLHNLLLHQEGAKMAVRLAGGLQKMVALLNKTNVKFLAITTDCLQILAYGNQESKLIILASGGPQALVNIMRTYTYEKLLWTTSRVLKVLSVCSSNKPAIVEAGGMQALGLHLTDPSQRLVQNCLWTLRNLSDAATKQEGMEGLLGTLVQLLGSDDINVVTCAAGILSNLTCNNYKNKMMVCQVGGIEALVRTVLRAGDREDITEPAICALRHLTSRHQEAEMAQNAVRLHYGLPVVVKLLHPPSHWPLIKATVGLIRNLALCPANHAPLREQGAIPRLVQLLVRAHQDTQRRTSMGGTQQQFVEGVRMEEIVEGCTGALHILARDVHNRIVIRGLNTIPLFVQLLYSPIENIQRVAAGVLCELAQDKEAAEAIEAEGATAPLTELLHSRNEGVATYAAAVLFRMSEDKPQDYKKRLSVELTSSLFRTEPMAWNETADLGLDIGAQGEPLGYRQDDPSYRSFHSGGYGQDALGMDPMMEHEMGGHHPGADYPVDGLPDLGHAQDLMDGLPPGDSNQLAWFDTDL

HT-29 = test: Cytotoxicity against human HT-29 cells assessed as reduction in cell viability incubated for 72 hrs by SRB assay; conditions: HT-29, 72 h
HCT-8 [3] = test: Inhibition of Wnt/beta-Catenin signaling in 5-FU resistant human HCT-8 cells assessed as reduction in beta-catenin level incubated for 24 hrs by Western blot analysis; assay type: cell-based; conditions: dose 20-100 µM
[4] = target: T1, Catenin beta-1 (Homo sapiens); test: Degradation of beta-catenin (unknown origin) transfected in human HCT-8 cells assessed as reduction in c-myc mRNA expression at 50 uM incubated for 24 hrs by qRT-PCR analysis; assay type: cell-based
HCT-116 [5] = test: Cytotoxicity against human HCT-116 cells assessed as reduction in cell viability incubated for 72 hrs by SRB assay; conditions: HCT-116, 72 h
[6] = target: T1, Catenin beta-1 (Homo sapiens); test: Degradation of beta-catenin (unknown origin) transfected in 5-FU resistant human HCT-8 cells assessed as reduction in c-myc mRNA expression at 50 uM incubated for 24 hrs by qRT-PCR analysis; assay type: cell-based
[7] = Resistance index, ratio of IC50 for cytotoxicity against 5-FU resistant human HCT-8 cells to IC50 for cytotoxicity against human HCT-8 cells; assay type: functional
[8] = target: T1, Catenin beta-1 (Homo sapiens); test: Degradation of beta-catenin (unknown origin) transfected in 5-FU resistant human HCT-8 cells assessed as reduction in survivin mRNA expression at 50 uM incubated for 24 hrs by qRT-PCR analysis; assay type: cell-based
HCT-8 [9] = test: Inhibition of Wnt/beta-Catenin signaling in human HCT-8 cells assessed as reduction in survivin expression incubated for 24 hrs by Western blot analysis; assay type: cell-based; conditions: dose 20-100 µM
[10] = target: T1, Catenin beta-1 (Homo sapiens); test: Degradation of beta-Catenin in human HCT-8 cells assessed as reduction in Wnt-3a-induced beta-Catenin level at 50 to 100 uM incubated for 24 hrs by Western blot analysis; assay type: cell-based; conditions: dose 50-100 µM
HCT-8 [11] = test: Inhibition of Wnt/beta-Catenin signaling in human HCT-8 cells assessed as reduction in cyclin D1 expression incubated for 24 hrs by Western blot analysis; assay type: cell-based; conditions: dose 20-100 µM
HCT-8 [12] = test: Cytotoxicity against human HCT-8 cells assessed as reduction in cell viability incubated for 72 hrs by SRB assay; conditions: HCT-8, 72 h
HCT-8 [13] = test: Effect on beta-Catenin mRNA expression in 5-FU resistant human HCT-8 cells at 50 to 100 uM incubated for 24 hrs by qRT-PCR analysis; assay type: functional, cell-based; conditions: dose 50-100 µM
HCT-8 [14] = test: Effect on beta-Catenin mRNA expression in human HCT-8 cells at 50 uM incubated for 24 hrs by qRT-PCR analysis; assay type: functional, cell-based
[15] = target: T1, Catenin beta-1 (Homo sapiens); test: Degradation of beta-catenin (unknown origin) transfected in 5-FU resistant human HCT-8 cells assessed as reduction in cell viability at 50 uM incubated for 24 hrs by SRB assay; assay type: cell-based
HCT-8 [16] = test: Inhibition of Wnt/beta-Catenin signaling in human HCT-8 cells assessed as reduction in c-myc expression incubated for 24 hrs by Western blot analysis; assay type: cell-based; conditions: dose 20-100 µM
[17] = Cytotoxicity against human RKOE6 cells assessed as reduction in cell viability incubated for 72 hrs by SRB assay; conditions: RKOE6, 72 h
HCT-8 [18] = test: Cytotoxicity against 5-FU resistant human HCT-8 cells assessed as reduction in cell viability incubated for 72 hrs by SRB assay; assay type: functional, cell-based; conditions: HCT-8, 72 h
[19] = target: T1, Catenin beta-1 (Homo sapiens); test: Degradation of beta-catenin (unknown origin) transfected in human HCT-8 cells assessed as reduction in survivin mRNA expression at 50 uM incubated for 24 hrs by qRT-PCR analysis; assay type: cell-based
HCT-8 [20] = test: Effect on beta-Catenin mRNA expression in human HCT-8 cells at 100 uM incubated for 24 hrs by qRT-PCR analysis; assay type: functional, cell-based
[21] = target: T1, Catenin beta-1 (Homo sapiens); test: Degradation of beta-catenin (unknown origin) transfected in human HCT-8 cells assessed as reduction in cyclin D1 mRNA expression at 50 uM incubated for 24 hrs by qRT-PCR analysis; assay type: cell-based
HCT-8 [22] = test: Inhibition of Wnt/beta-Catenin signaling in 5-FU resistant human HCT-8 cells assessed as reduction in cyclin D1 expression incubated for 24 hrs by Western blot analysis; assay type: cell-based; conditions: dose 20-100 µM
HCT-8 [23] = test: Inhibition of Wnt/beta-Catenin signaling in 5-FU resistant human HCT-8 cells assessed as reduction in c-myc expression incubated for 24 hrs by Western blot analysis; assay type: cell-based; conditions: dose 20-100 µM
HCT-8 [24] = test: Inhibition of Wnt/beta-Catenin signaling in human HCT-8 cells assessed as reduction in beta-catenin level incubated for 24 hrs by Western blot analysis; assay type: cell-based; conditions: dose 20-100 µM
[25] = Resistance index, ratio of IC50 for cytotoxicity against human HCT-116 cells harboring p53 knock out gene to IC50 for cytotoxicity against human HCT-116 cells; assay type: functional
HCT-116 [26] = test: Cytotoxicity against human HCT-116 cells harboring p53 knock out gene assessed as reduction in cell viability incubated for 72 hrs by SRB assay; assay type: functional, cell-based; conditions: HCT-116, 72 h
LoVo = test: Cytotoxicity against human LoVo cells assessed as reduction in cell viability incubated for 72 hrs by SRB assay
[27] = target: T1, Catenin beta-1 (Homo sapiens); test: Degradation of beta-catenin (unknown origin) transfected in human HCT-8 cells assessed as reduction in cell viability at 50 uM incubated for 24 hrs by SRB assay; assay type: cell-based
HCT-8 [28] = test: Inhibition of Wnt/beta-Catenin signaling in 5-FU resistant human HCT-8 cells assessed as reduction in survivin expression incubated for 24 hrs by Western blot analysis; assay type: cell-based; conditions: dose 20-100 µM

In the case of `CC[C@H]1C(=O)O[C@@H]2CCCn3cccc3[C@H]21`, the inhibition (HCT-8 [1]) is reported as “inactive”.
In the case of `CCCCc1ccc2n1CCC[C@H]1OC(=O)[C@@H](C)[C@H]21`, the inhibition (HCT-8 [1]) is reported as “inactive”.
With `C=C1C(=O)O[C@@H]2CCCn3c(C=O)ccc3[C@@H]12` the inhibition (HCT-8 [1]) was “inactive”.
For `C=C1C(=O)O[C@@H]2CCCn3cccc3[C@@H]12`, the IC50 (SW480) was 16.8 µM, the Activity [2] was “inactive” and the IC50 (HT-29) was 8.52 µM. For the same compound, the inhibition (HCT-8 [3]) was “Dose-dependent effect”, the Activity [4] was “inactive” and the inhibition (HCT-8 [1]) was “inactive”. The IC50 (HCT-116 [5]) was 13 µM, the Activity [6] was “inactive” and the “Ratio IC50” value [7] was 1. For the same compound, the Activity [8] was “inactive”, the inhibition (HCT-8 [9]) was “Dose-dependent effect” and the Activity [10] was “Active”. For the same compound, the inhibition (HCT-8 [11]) was “Dose-dependent effect”, the IC50 (HCT-8 [12]) was 11 µM and the Activity (HCT-8 [13]) was “inactive”. For the same compound, the Activity (HCT-8 [14]) was “Active”, the Activity [15] was “inactive” and the inhibition (HCT-8 [16]) was “Dose-dependent effect”. The IC50 [17] was 7.93 µM, the IC50 (HCT-8 [18]) was 11 µM and the Activity [19] was “inactive”. The Activity (HCT-8 [20]) was “inactive”, the Activity [21] was “inactive” and the inhibition (HCT-8 [22]) was “Dose-dependent effect”. The inhibition (HCT-8 [23]) was “Dose-dependent effect”, the inhibition (HCT-8 [24]) was “Dose-dependent effect” and the “Ratio IC50” value [25] was 1. The IC50 (HCT-116 [26]) was 14 µM, the IC50 (LoVo) was 10.2 µM and the Activity [27] was “inactive”. The inhibition (HCT-8 [28]) was “Dose-dependent effect”.
For `O=c1[nH]cc(F)c(=O)[nH]1` [FLUOROURACIL], the IC50 (HCT-116 [5]) was 1.7 µM, the “Ratio IC50” value [7] was 21 and the IC50 (HCT-8 [12]) was 2.2 µM. The IC50 (HCT-8 [18]) was 47 µM, the “Ratio IC50” value [25] was 2.5 and the IC50 (HCT-116 [26]) was 4.3 µM.
With `CC[C@@H]1C(=O)O[C@@H]2CCCn3cccc3[C@@H]12` the inhibition (HCT-8 [1]) was “inactive”.
